Some test systems named below: ACHN; CCRF-CEM; HCT-15; HL-60; HOP-92; IGROV-1; K562; M14; NCI-H460; NCI-H522; OVCAR-5; OVCAR-8; SF-295; SF-539; SK-MEL-28; SN12C; SNB-19; SR; TK-10; RXF 393.
What all share (test): NCI tumour cell line growth inhibition, 48 h

Consider eleven molecules from ChEMBL document CHEMBL1201862, “PubChem BioAssay data set” (2004).

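Cells were grown in 96-well plates and exposed to each compound for 48 hours at five concentrations; endpoints were interpolated linearly between bracketing concentrations, or set to the highest concentration if not reached. Here, GI50 denotes the concentration required for 50% inhibition of growth.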 The source made the active and inactive calls. Cut-off read from the data, not from the text of the source: active = GI50 up to about 1.1 µM and inactive = higher.

In the case of `Cc1cccc(NC(=O)C(=O)C(C(=O)c2ccccc2F)C2OC(=O)c3ccccc32)c1Cl` (centres undefined), the GI50 was 53.1 µM (inactive) with ACHN; 23.3 µM (inactive) with CCRF-CEM; 22.4 µM in the assay on HCT-15; 20.1 µM (inactive) in the assay on HL-60; 52.7 µM (inactive) with HOP-92; 56.8 µM (inactive) with IGROV-1. Besides, the GI50 is 28.6 µM (inactive) in the assay with K562; 43.1 µM (inactive) in the assay on M14; 33.7 µM (inactive) in the assay with NCI-H460; 22.4 µM (inactive) in the assay on NCI-H522; 60 µM (inactive) in the assay on OVCAR-5; 20.1 µM (inactive) with OVCAR-8. Further, the GI50 with SF-295 is 36.4 µM (inactive); with SF-539, 18.2 µM (inactive); in the assay on SK-MEL-28 it was 35.1 µM (inactive); in the assay on SN12C it was 36.7 µM (inactive); with SNB-19 it was 31.1 µM (inactive); in the assay on SR, 26.5 µM (inactive). In addition, in the assay with TK-10, the GI50 was 63 µM (inactive).
For the molecule `CC(C)COC(=O)N1N=NC2C3CC(=O)C(O3)C21` (centres undefined), the GI50 in the assay with ACHN was > 100 µM (inactive); in the assay on CCRF-CEM, > 100 µM (inactive); in the assay with HCT-15, above 100 µM; in the assay on HOP-92, > 100 µM (inactive); in the assay with IGROV-1, > 100 µM (inactive); with K562, > 100 µM (inactive). Besides, the GI50 in the assay on M14, with NCI-H460, with NCI-H522, in the assay on OVCAR-5, in the assay on OVCAR-8 and with RXF 393 was > 100 µM (inactive) throughout. Moreover, the GI50 with SF-295, in the assay with SF-539, in the assay on SK-MEL-28, with SN12C, with SNB-19 and with SR was > 100 µM (inactive) each time. The GI50 with TK-10 is 22.9 µM (inactive).
Regarding `CC(C)(C)OC(=O)N1CCC(NC(=O)NC2CCN(C(=O)OC(C)(C)C)CC2)CC1`, the GI50 with ACHN is > 100 µM (inactive); in the assay with CCRF-CEM, > 100 µM (inactive); with HCT-15, above 100 µM; in the assay on HL-60, > 100 µM (inactive); in the assay on HOP-92 it was > 100 µM (inactive); with IGROV-1 it was > 100 µM (inactive). The GI50 in the assay on M14, in the assay on NCI-H460, in the assay on NCI-H522, in the assay on OVCAR-5, in the assay on OVCAR-8 and with SF-295 was > 100 µM (inactive) throughout. Further, the GI50 in the assay with SF-539, in the assay on SK-MEL-28, in the assay with SN12C, with SNB-19, in the assay with SR and in the assay on TK-10 was > 100 µM (inactive) each time.
In the case of `C=C1C[C@@H]2CC[C@@]34CC5O[C@H]6C(O[C@H]7CC[C@H](CC(=O)O[C@@H]8[C@@H](C)[C@@H]9O[C@@H]%10C[C@]%11(C[C@@H]%12O[C@]%13(C[C@H](C)[C@@H]%14O[C@@H]%15CC(C(COC(C)=O)OC(C)=O)O[C@@H]%15C[C@@H]%14O%13)C[C@H](C)[C@@H]%12O%11)O[C@@H]%10C[C@@H]9O[C@H]8CC8O[C@@H](CC[C@@H]1O2)C[C@@H](C)C8(O)CO)O[C@@H]7[C@@H]6O3)[C@H]5O4` (some centres undefined), the GI50 in the assay on ACHN was 0.708 µM (active); in the assay on CCRF-CEM, 0.995 µM (active); with HCT-15, 0.527 µM; with HOP-92, > 1 µM (active); with IGROV-1, 0.371 µM (active); with K562, 0.513 µM (active). In addition, the GI50 with M14 was 0.587 µM (active); in the assay with NCI-H460, 0.258 µM (active); with NCI-H522 it was 0.137 µM (active); in the assay on OVCAR-5, > 1 µM (active); in the assay with OVCAR-8, 0.668 µM (active); in the assay with RXF 393, 0.0359 µM (active). The GI50 in the assay with SF-295 is 0.297 µM (active); with SK-MEL-28, > 1 µM (active); in the assay on SN12C it was > 0.838 µM (active); in the assay with SNB-19 it was 0.701 µM (active); with SR, 0.117 µM (active); in the assay with TK-10, > 0.36 µM (active).
Turning to `O=c1n(Cc2ccccc2)c2ccccc2n1CC1CS1` (centres undefined), the GI50 in the assay on ACHN is > 100 µM (inactive); in the assay with CCRF-CEM it was > 100 µM (inactive); in the assay with HCT-15, above 100 µM; in the assay with HL-60, > 100 µM (inactive); with HOP-92, > 100 µM (inactive); with IGROV-1, > 100 µM (inactive). The GI50 with K562, in the assay on M14, in the assay with NCI-H522, with OVCAR-5, with OVCAR-8 and in the assay with SF-295 was > 100 µM (inactive) throughout. For the same molecule, the GI50 in the assay on SF-539, with SK-MEL-28, in the assay with SN12C, in the assay on SNB-19, in the assay on SR and in the assay on TK-10 was > 100 µM (inactive) throughout.
`CC(=O)OCc1nnn2c1C(OC(C)=O)CC2` (centres undefined): the GI50 was > 100 µM (inactive) in the assay on ACHN; above 100 µM in the assay with HCT-15; > 100 µM (inactive) in the assay on HOP-92; > 100 µM (inactive) with IGROV-1; > 100 µM (inactive) with K562; > 100 µM (inactive) in the assay with M14. Besides, the GI50 with NCI-H460, in the assay on NCI-H522, with OVCAR-5, with OVCAR-8, with RXF 393 and in the assay with SF-295 was > 100 µM (inactive) in each case. Further, the GI50 in the assay on SF-539, in the assay with SK-MEL-28, with SN12C, in the assay with SNB-19, in the assay with SR and in the assay on TK-10 was > 100 µM (inactive) throughout.
Take `C#CCOCn1cnc2ncnc(Cl)c21`: the GI50 in the assay with ACHN, with CCRF-CEM, in the assay on HOP-92, with IGROV-1, in the assay on K562 and in the assay on M14 was > 100 µM (inactive) each time. Besides, the GI50 in the assay with NCI-H460, with NCI-H522, in the assay with OVCAR-5, in the assay with OVCAR-8, in the assay with SF-295 and in the assay with SF-539 was > 100 µM (inactive) in each case. In addition, the GI50 in the assay on SK-MEL-28, in the assay on SN12C, in the assay on SNB-19, with SR and with TK-10 was > 100 µM (inactive) each time.
Consider `CC/C=C\C/C=C\C/C=C\CCCCCCCC(=O)OCC`, for which the GI50 with ACHN, in the assay on CCRF-CEM, in the assay with HL-60, in the assay with HOP-92, in the assay with IGROV-1 and in the assay on K562 was > 100 µM (inactive) throughout. Further, the GI50 in the assay on M14, in the assay with OVCAR-5, with OVCAR-8, in the assay with SF-295, in the assay with SF-539 and with SK-MEL-28 was > 100 µM (inactive) in each case. For the same molecule, the GI50 in the assay on SN12C, in the assay on SR and with TK-10 was > 100 µM (inactive) each time.
In the case of `CC[C@@H]1ON(C)[C@H]2CN(C)C(=O)[C@@H]12`, the GI50 in the assay on ACHN is > 100 µM (inactive); with CCRF-CEM it was > 100 µM (inactive); in the assay on HCT-15, above 100 µM; in the assay with HL-60 it was > 100 µM (inactive); in the assay on HOP-92 it was > 100 µM (inactive); in the assay with IGROV-1, > 100 µM (inactive). Besides, the GI50 in the assay on K562, in the assay with M14, with NCI-H460, with NCI-H522, in the assay with OVCAR-5 and with OVCAR-8 was > 100 µM (inactive) in each case. For the same molecule, the GI50 in the assay with SF-295, in the assay on SK-MEL-28, in the assay with SN12C, in the assay on SNB-19, in the assay with SR and in the assay on TK-10 was > 100 µM (inactive) each time.
In the case of `COc1ccc(C2C(Cl)C(=O)N2NC(=O)c2ccc(NC(C)=O)cc2)cc1OC` (centres undefined), the GI50 in the assay on ACHN, in the assay on CCRF-CEM, in the assay on HL-60, with HOP-92, in the assay with IGROV-1 and in the assay on K562 was > 100 µM (inactive) each time. Also, the GI50 in the assay on NCI-H460, with NCI-H522, in the assay with OVCAR-5, in the assay on OVCAR-8, in the assay with SF-295 and in the assay with SF-539 was > 100 µM (inactive) throughout. Also, the GI50 in the assay on SK-MEL-28, in the assay with SNB-19, in the assay on SR and in the assay with TK-10 was > 100 µM (inactive) in each case.
With `Cc1ccc(-c2cc(=O)c(=O)[nH][nH]2)cc1`, the GI50 was > 100 µM (inactive) with ACHN; > 100 µM (inactive) in the assay with CCRF-CEM; above 100 µM in the assay with HCT-15; > 100 µM (inactive) in the assay on HOP-92; 45.1 µM (inactive) in the assay on IGROV-1; > 100 µM (inactive) in the assay with K562. Further, the GI50 was > 100 µM (inactive) in the assay on M14; > 100 µM (inactive) in the assay on NCI-H460; 36.9 µM (inactive) with NCI-H522; > 100 µM (inactive) in the assay on OVCAR-5; > 100 µM (inactive) with OVCAR-8; > 100 µM (inactive) in the assay on RXF 393. In addition, the GI50 with SF-295, in the assay on SF-539, with SK-MEL-28, in the assay on SN12C, in the assay with SR and with TK-10 was > 100 µM (inactive) in each case.
